Measurements taken from patent US8541418B2, “Inhibitors of polo-like kinase” (Elan Pharmaceutical, Inc., priority 2009, dated 2013).
Where two headings read alike, the source gives them in different places.

Tests used:
Format in all cases: biochemical
PLK3 = PLK3 (Homo sapiens, UniProt Q9H4B4); assay: PLK TR-FRET peptide assay, PLK3; settings: GST-PLK3, 15 min reaction, read-out: Plk3 IC50
PLK2 = PLK2 (Homo sapiens, UniProt Q9NYY3); assay: PLK TR-FRET peptide assay, PLK2; settings: for IC50: read-out: Plk2 IC50; for relative PLK2 activity of the enantiomers: compared with the opposite enantiomer
PLK1 = PLK1 (Homo sapiens, UniProt P53350); assay: PLK TR-FRET peptide assay, PLK1; settings: GST-PLK1, 60 min reaction
[1] = PLK TR-FRET peptide assay, GST-PLK2, 60 min reaction

PLK2, sequence (Q9NYY3 whole entry): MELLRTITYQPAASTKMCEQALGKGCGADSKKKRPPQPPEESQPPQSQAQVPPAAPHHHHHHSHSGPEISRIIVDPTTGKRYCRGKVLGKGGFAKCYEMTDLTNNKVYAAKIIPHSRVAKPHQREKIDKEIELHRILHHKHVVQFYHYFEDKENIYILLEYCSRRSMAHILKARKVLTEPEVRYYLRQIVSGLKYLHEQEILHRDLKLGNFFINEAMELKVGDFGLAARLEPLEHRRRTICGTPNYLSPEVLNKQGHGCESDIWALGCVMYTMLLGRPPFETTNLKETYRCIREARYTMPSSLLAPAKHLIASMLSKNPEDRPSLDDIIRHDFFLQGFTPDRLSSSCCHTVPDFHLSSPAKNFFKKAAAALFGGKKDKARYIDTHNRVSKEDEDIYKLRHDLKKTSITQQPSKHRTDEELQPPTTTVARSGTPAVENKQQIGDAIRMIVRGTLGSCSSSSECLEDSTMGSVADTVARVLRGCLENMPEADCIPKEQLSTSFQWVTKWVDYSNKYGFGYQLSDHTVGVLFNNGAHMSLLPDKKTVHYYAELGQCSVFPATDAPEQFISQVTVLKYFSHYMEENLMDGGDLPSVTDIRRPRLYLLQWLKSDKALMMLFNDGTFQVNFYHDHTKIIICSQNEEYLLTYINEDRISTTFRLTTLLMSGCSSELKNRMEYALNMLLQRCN
PLK1, sequence (P53350 whole entry): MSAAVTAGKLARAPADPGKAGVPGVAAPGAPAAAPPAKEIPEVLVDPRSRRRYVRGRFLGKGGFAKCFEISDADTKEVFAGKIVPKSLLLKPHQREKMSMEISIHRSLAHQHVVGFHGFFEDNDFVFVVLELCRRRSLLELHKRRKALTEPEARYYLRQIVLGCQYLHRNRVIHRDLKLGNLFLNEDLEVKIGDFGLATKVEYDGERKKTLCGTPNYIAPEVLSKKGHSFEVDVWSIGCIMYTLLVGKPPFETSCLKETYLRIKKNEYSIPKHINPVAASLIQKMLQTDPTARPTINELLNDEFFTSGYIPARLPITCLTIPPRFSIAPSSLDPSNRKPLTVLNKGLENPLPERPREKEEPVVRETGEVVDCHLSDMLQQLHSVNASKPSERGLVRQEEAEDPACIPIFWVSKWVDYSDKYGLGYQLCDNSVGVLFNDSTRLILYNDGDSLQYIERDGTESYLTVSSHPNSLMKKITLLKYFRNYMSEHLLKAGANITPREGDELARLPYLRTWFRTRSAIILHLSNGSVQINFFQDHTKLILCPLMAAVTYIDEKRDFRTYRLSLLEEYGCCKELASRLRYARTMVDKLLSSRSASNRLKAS
PLK3, sequence (Q9H4B4 whole entry): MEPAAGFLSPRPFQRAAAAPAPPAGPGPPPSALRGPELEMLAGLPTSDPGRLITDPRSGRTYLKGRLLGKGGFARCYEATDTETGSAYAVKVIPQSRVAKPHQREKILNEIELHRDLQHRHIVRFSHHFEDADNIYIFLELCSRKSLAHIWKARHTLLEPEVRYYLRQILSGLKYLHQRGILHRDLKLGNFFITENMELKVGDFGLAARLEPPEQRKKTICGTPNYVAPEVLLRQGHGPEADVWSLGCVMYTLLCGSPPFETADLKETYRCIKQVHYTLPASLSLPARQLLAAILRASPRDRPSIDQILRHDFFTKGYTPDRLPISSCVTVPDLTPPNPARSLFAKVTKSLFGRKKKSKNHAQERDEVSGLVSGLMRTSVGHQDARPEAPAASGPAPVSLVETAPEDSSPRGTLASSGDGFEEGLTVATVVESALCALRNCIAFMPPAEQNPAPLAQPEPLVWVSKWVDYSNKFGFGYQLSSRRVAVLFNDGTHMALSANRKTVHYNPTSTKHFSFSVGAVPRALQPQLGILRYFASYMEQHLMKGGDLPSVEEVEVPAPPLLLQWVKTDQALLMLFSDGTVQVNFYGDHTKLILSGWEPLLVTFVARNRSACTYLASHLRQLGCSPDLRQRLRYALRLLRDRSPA

Row | Structure (SMILES) | IC50 (PLK3) [µM] | IC50 (PLK2; [1]) [µM] | IC50 (PLK1) [µM] | relative PLK2 activity of the enantiomers (PLK2) | IC50 (PLK2) [µM]
1 | CC[C@@H]1C(=O)N(C)c2cnc(-n3ccnc3-c3ccc(F)cc3F)nc2N1C1CCOC1 (stereo partly drawn) [Example 268, (7R)-2-(2-(2,4-difluorophenyl)-1H-imidazol-1-yl)-7-ethyl-5-methyl-8-(tetrahydrofuran-3-yl)-7,8-dihydropteridin-6(5H)-one] | 1 to 10 | < 1 | 1 to 10 | – | –
2 | CC[C@@]12CCCCN1c1nc(-n3ccnc3-c3ccc(F)cc3F)ncc1N(C)C2=O [Example 269, (S)-2-(2-(2,4-difluorophenyl)-1H-imidazol-1-yl)-6a-ethyl-5-methyl-7,8,9,10-tetrahydro-5H-pyrido[2,1-h]pteridin-6(6aH)-one] | 10 to 50 | < 1 | 10 to 50 | more active compound | –
3 | CC[C@]12CCCCN1c1nc(-n3ccnc3-c3ccc(F)cc3F)ncc1N(C)C2=O [Example 270, (R)-2-(2-(2,4-difluorophenyl)-1H-imidazol-1-yl)-6a-ethyl-5-methyl-7,8,9,10-tetrahydro-5H-pyrido[2,1-h]pteridin-6(6aH)-one] | > 50 | 10 to 50 | > 50 | – | –
4 | CC[C@@H]1C(=O)N(C)c2cnc(-n3ccnc3-c3ccc(F)cn3)nc2N1C1CCCC1 [Example 271, (R)-8-cyclopentyl-7-ethyl-2-(2-(5-fluoropyridin-2-yl)-1H-imidazol-1-yl)-5-methyl-7,8-dihydropteridin-6(5H)-one] | 1 to 10 | < 1 | < 1 | – | –
5 | CC[C@@]12CCCN1c1nc(-n3ccnc3-c3cccc(-c4cccnc4)c3)ncc1N(C)C2=O [Example 272, (S)-6a-ethyl-5-methyl-2-(2-(3-(pyridin-3-yl)phenyl)-1H-imidazol-1-yl)-6a,7,8,9-tetrahydropyrrolo[2,1-h]pteridin-6(5H)-one] | 10 to 50 | < 1 | 10 to 50 | – | –
6 | CC[C@@]12CCCN1c1nc(-n3ccnc3-c3cccc(-n4cncn4)c3)ncc1N(C)C2=O [Example 273, (S)-2-(2-(3-(1H-1,2,4-triazol-1-yl)phenyl)-1H-imidazol-1-yl)-6a-ethyl-5-methyl-6a,7,8,9-tetrahydropyrrolo[2,1-h]pteridin-6(5H)-one] | > 50 | – | 10 to 50 | – | < 1
7 | CC[C@@]12CCCN1c1nc(-n3ccnc3-c3cccc(-n4cccn4)c3)ncc1N(C)C2=O [Example 276, (S)-2-(2-(3-(1H-pyrazol-1-yl)phenyl)-1H-imidazol-1-yl)-6a-ethyl-5-methyl-6a,7,8,9-tetrahydropyrrolo[2,1-h]pteridin-6(5H)-one] | > 50 | < 1 | 10 to 50 | – | –
8 | CC[C@@H]1C(=O)N(C)c2cnc(-n3ccnc3-c3ccc(F)cc3F)nc2N1CCC(F)(F)F [Example 277, (R)-2-(2-(2,4-difluorophenyl)-1H-imidazol-1-yl)-7-ethyl-5-methyl-8-(3,3,3-trifluoropropyl)-7,8-dihydropteridin-6(5H)-one] | 1 to 10 | < 1 | 1 to 10 | – | –
9 | CC[C@@]12CCCN1c1nc(N3CCN=C3c3ccccc3)ncc1N(C)C2=O [Example 281, (S)-6a-ethyl-5-methyl-2-(2-phenyl-4,5-dihydro-1H-imidazol-1-yl)-6a,7,8,9-tetrahydropyrrolo[2,1-h]pteridin-6(5H)-one] | 10 to 50 | < 1 | > 50 | – | –
10 | CC[C@@H]1C(=O)N(C)c2cnc(-n3ccnc3-c3ccc(F)cc3Cl)nc2N1CCC(F)(F)F [Example 282, (R)-2-(2-(2-chloro-4-fluorophenyl)-1H-imidazol-1-yl)-7-ethyl-5-methyl-8-(3,3,3-trifluoropropyl)-7,8-dihydropteridin-6(5H)-one] | 10 to 50 | < 1 | 10 to 50 | – | –
11 | CCC1C(=O)N(C)c2cnc(-n3cc[n+](C)c3-c3ccccc3)nc2N1NC (stereo not shown) [Example 284, 1-(7-ethyl-5-methyl-8-(methylamino)-6-oxo-5,6,7,8-tetrahydropteridin-2-yl)-3-methyl-2-phenyl-1H-imidazol-3-ium] | > 50 | > 50 | > 50 | – | –
12 | CC[C@@]12CCCN1c1nc(-n3ccnc3)ncc1N(C)C2=O [Example 285, (S)-6a-ethyl-2-(1H-imidazol-1-yl)-5-methyl-6a,7,8,9-tetrahydropyrrolo[2,1-h]pteridin-6(5H)-one] | > 50 | 10 to 50 | > 50 | – | –
13 | CC[C@@]12CCCCN1c1nc(-n3ccnc3)ncc1N(C)C2=O [Example 286, (S)-6a-ethyl-2-(1H-imidazol-1-yl)-5-methyl-7,8,9,10-tetrahydro-5H-pyrido[2,1-h]pteridin-6(6aH)-one] | > 50 | 1 to 10 | > 50 | more active compound | –
14 | CC[C@]12CCCCN1c1nc(-n3ccnc3)ncc1N(C)C2=O [Example 287, (R)-6a-ethyl-2-(1H-imidazol-1-yl)-5-methyl-7,8,9,10-tetrahydro-5H-pyrido[2,1-h]pteridin-6(6aH)-one] | > 50 | > 50 | > 50 | – | –
15 | CC[C@@H]1C(=O)N(C)c2cnc(-n3ccnc3C3CC3)nc2N1C1CCCC1 [Example 288, (R)-8-cyclopentyl-2-(2-cyclopropyl-1H-imidazol-1-yl)-7-ethyl-5-methyl-7,8-dihydropteridin-6(5H)-one] | 1 to 10 | < 1 | 1 to 10 | – | –
16 | CC(C)N1c2nc(-n3ccnc3-c3ccccc3)ncc2N(C)C(=O)C12CCC2 [Example 289, 8′-isopropyl-5′-methyl-2′-(2-phenyl-1H-imidazol-1-yl)-5′H-Spiro[cyclobutane-1,7′-pteridin]-6′(8′H)-one] | 10 to 50 | < 1 | 1 to 10 | – | –
17 | CC[C@@H]1C(=O)N(C)c2cnc(-n3ccnc3Cl)nc2N1C1CCCC1 [Example 292, (R)-2-(2-chloro-1H-imidazol-1-yl)-8-cyclopentyl-7-ethyl-5-methyl-7,8-dihydropteridin-6(5H)-one] | 10 to 50 | < 1 | 1 to 10 | – | –
18 | CN1C(=O)[C@@H](CC(F)(F)F)N(CCC(F)(F)F)c2nc(-n3ccnc3-c3ccc(F)cc3F)ncc21 [Example 293, (R)-2-(2-(2,4-difluorophenyl)-1H-imidazol-1-yl)-5-methyl-7-(2,2,2-trifluoroethyl)-8-(3,3,3-trifluoropropyl)-7,8-dihydropteridin-6(5H)-one] | 10 to 50 | < 1 | 1 to 10 | more active compound | –
19 | CN1C(=O)[C@H](CC(F)(F)F)N(CCC(F)(F)F)c2nc(-n3ccnc3-c3ccc(F)cc3F)ncc21 [Example 294, (S)-2-(2-(2,4-difluorophenyl)-1H-imidazol-1-yl)-5-methyl-7-(2,2,2-trifluoroethyl)-8-(3,3,3-trifluoropropyl)-7,8-dihydropteridin-6(5H)-one] | > 50 | 10 to 50 | > 50 | – | –
20 | CC[C@@H]1C(=O)N(C)c2cnc(-n3ccnc3)nc2N1C1CCOCC1 [Example 295, (R)-7-ethyl-2-(1H-imidazol-1-yl)-5-methyl-8-(tetrahydro-2H-pyran-4-yl)-7,8-dihydropteridin-6(5H)-one] | 10 to 50 | 1 to 10 | 1 to 10 | – | –
21 | CC[C@@H]1C(=O)N(C)c2cnc(N3CCN=C3C3CC3)nc2N1C(C)C [Example 297, (R)-2-(2-cyclopropyl-4,5-dihydro-1H-imidazol-1-yl)-7-ethyl-8-isopropyl-5-methyl-7,8-dihydropteridin-6(5H)-one] | 10 to 50 | 10 to 50 | 10 to 50 | – | –
22 | CC(C)N1c2nc(-n3ccnc3-c3ccc(F)cc3)ncc2N(C)C(=O)C1(C)C [Example 298, 2-(2-(4-fluorophenyl)-1H-imidazol-1-yl)-8-isopropyl-5,7,7-trimethyl-7,8-dihydropteridin-6(5H)-one] | > 50 | 1 to 10 | > 50 | – | –
23 | CCC1C(=O)N(C)c2cnc(-n3ccnc3)nc2N1c1ccccc1 (stereo not shown) [Example 300, 7-ethyl-2-(1H-imidazol-1-yl)-5-methyl-8-phenyl-7,8-dihydropteridin-6(5H)-one] | > 50 | 1 to 10 | 1 to 10 | – | –
24 | CN1C(=O)[C@@H](CC(F)(F)F)N(CCC(F)(F)F)c2nc(-n3ccnc3)ncc21 [Example 301, (R)-2-(1H-imidazol-1-yl)-5-methyl-7-(2,2,2-trifluoroethyl)-8-(3,3,3-trifluoropropyl)-7,8-dihydropteridin-6(5H)-one] | 10 to 50 | < 1 | 10 to 50 | more active compound | –
25 | CN1C(=O)[C@H](CC(F)(F)F)N(CCC(F)(F)F)c2nc(-n3ccnc3)ncc21 [Example 302, (S)-2-(1H-imidazol-1-yl)-5-methyl-7-(2,2,2-trifluoroethyl)-8-(3,3,3-trifluoropropyl)-7,8-dihydropteridin-6(5H)-one] | > 50 | 10 to 50 | > 50 | – | –
26 | CN1C(=O)C2CC3CC3N2c2nc(-n3ccnc3-c3ccccc3)ncc21 (stereo not shown) [Example 304, 5-Methyl-2-(2-phenyl-imidazol-1-yl)-7,7a,8,8a-tetrahydro-5H,6aH-1,3,5,8b-tetraaza-cyclopropa[4,5]cyclopenta[1,2-a]naphthalen-6-one] | > 50 | 10 to 50 | > 50 | – | –
27 | CC[C@@]12CCCN1c1nc(-c3cn[nH]c3-c3ccccc3)ncc1N(C)C2=O [Example 305, (S)-6a-ethyl-5-methyl-2-(5-phenyl-1H-pyrazol-4-yl)-6a,7,8,9-tetrahydropyrrolo[2,1-h]pteridin-6(5H)-one] | 10 to 50 | < 1 | 1 to 10 | – | –
28 | CC[C@@H]1C(=O)N(C)c2cnc(-c3cn[nH]c3-c3cscn3)nc2N1C1CCCC1 [Example 307, (R)-8-cyclopentyl-7-ethyl-5-methyl-2-(5-(thiazol-4-yl)-1H-pyrazol-4-yl)-7,8-dihydropteridin-6(5H)-one] | < 1 | < 1 | < 1 | – | –
